Source: patent US20250027956A1, “Improved Gamma-Secretase Inhibitor Screening Assays” (VIB VZW, priority 2021, published 2025)

Columns and labels:
[1] = tested on: WT MEFs; test: Lysosomal Ca2+ content, Fura-2AM loaded cells challenged with GPN, WT cells; type: cell-based, mouse
Description: Cells were treated with the following drugs, usually for 4 days, unless otherwise stated: DAPT (2634/10, Tocris) 1 μM final; Inhibitor X (565771-250 μg, Calbiochem/Merck) 1 μM final; β-Secretase Inhibitor IV (565788, Calbiochem/Merck) 2 μM final, (2-Hydroxypropyl)-γ-cyclodextrin (H125-5G-I, Sigma Aldrich) 1 mM final; Adam 10 inhibitor G1254023X (SML0789, Sigma Aldrich) 3 μM final. For OSW-1 (30310-1, Sanbio/Cayman Chemical), cells were treated overnight with 10 nM. Diluent treatment alone (in most cases DMSO, water for the cyclodextrin) was used as vehicle control.
Cytosolic response: Ca2+ responses were measured as previously described in Coen et al 2012. Briefly, cells (0.005 to 0.01×106) were seeded two to three days prior to the experiment on glass coverslips (631-0153, VWR). On the day of recording, cells were rinsed three times in Ringer solution (155 mM NaCl, 5 mM KCl, 2 mM MgCl2, 2 mM CaCl2, 10 mM Glucose, 10 mM HEPES, 2 mM NaH2PO4·2H20; pH 7.3), and loaded 1 μM Fura2-AM (F1221, ThermoFisher Scientific) for 30 min (RT). Cells were rinsed three times and left to equilibrate for at least 15-20 min (RT). All acquisitions were carried out in Ringer Ca2+ free solution (same as above, albeit the 2 mM CaCl2 were replaced by 2 mM EGTA). During experiments, cells were challenged with different drugs, such as Thapsigargin (T7459, ThermoFisher Scientific, 1 μM final), GPN (ab145914, abcam, 100 μM final for MEFs, 500 μM for neurons), MLSA1 (Cat. No. 4746, Tocris, 20 μM final) or lonomycin (10634, Sigma Aldrich, 1 μM final). Images were acquired every 5 sec for 8-10 min, using an Olympus IX81 using an UAPO/340 40× oil objective (1.35 NA), operated by CellR Software (Olympus). Recordings were done using 340 and 380 nm excitation, and 530 nm emission filters. Image processing was performed using Image J Software (Schindelin et al 2012; Schneider et al 2012). Briefly, cells were segmented manually and fluorescence intensities were measured over time. Fura-2 signals were corrected to obtain ΔF/F0 (F0 being the initial signal recorded). For each cell, the area under the curve, corresponding to the aforementioned stimulation, was measured using GraphPad Prism.

[2] = tested on: NPC patients; conditions: clinical trials; cited from earlier work
[3] = tested on: Npc1 mice; conditions: oral; cited from earlier work
[4] = tested on: cats; conditions: cited from earlier work
[5] = tested on: LE/Ly cholesterol; conditions: cited from earlier work
[6] = tested on: Npc1 cats; conditions: intrathecal 120 mg every 2 weeks; cited from earlier work
[7] = tested on: PSENdKO cells; test: Confocal immunofluorescence (compartment size, Mander's colocalization, filipin) in PSENdKO cells; type: cell-based, mouse
Description: For OSW-1 (30310-1, Sanbio/Cayman Chemical), cells were treated overnight with 10 nM. Diluent treatment alone (in most cases DMSO, water for the cyclodextrin) was used as vehicle control. KO cell lines: PSEN1 and 2 KO cell lines (PSENdKO) cell lines were established as described in ([…] al 2020). Briefly, the web-based CRISPR design tool was used to select the sequence to be targeted in mouse PSEN1 and PSEN2 ([NT] and [NT], respectively). Oligo pairs encoding guide sequences (obtained from Integrated DNA Technologies, IDT) were annealed and ligated into the pX330 plasmid (Addgene) according to the Zhang's laboratory protocol (https://www.addgene.org/crispr/zhang/). MEF cells were then transfected with the pX330-PSEN1 and PX330-PSEN2, using Fugene HD (Promega), in accordance with the manufacturer protocol. Selection of PSENdKO clones was achieved through serial dilution and confirmed by WB analysis. Further depletion of APP in different PSENdKO clones was achieved through electroporation of RNP complexes. Single guide RNA (sgRNAs) were designed to either target exon 2 ([NT]) or exon 3 ([NT]). The Neon Transfection System (ThermoFisher Scientific, one pulse, 1650 V, 20 ms) was used to electroporate 150 000 cells with 10 pmol of Cas 9 (IDT) and 20 pmol of single guide RNA (IDT). As above, cells were amplified and selection of independent APPKO clones was performed with serial dilutions and WB characterization. All clones of interest were sequenced using Sanger sequencing. […] Primary antibodies diluted in the same blocking buffer were incubated overnight at 4° C. Following PBS washing steps, (goat- or donkey-) secondary antibodies conjugated with Alexa fluor dyes (Alexa 488, 568, or 647, all ThermoFisher Scientific) diluted in the blocking buffer were incubated for 1 h, RT. Coverslips were then mounted with Mowiol (Sigma). When cholesterol labelling was performed, fixed cells were treated with 200 μg·ml-1 filipin (F4767, Sigma) for 2 h at RT, prior to permeabilization. Acquisition: Z stack images (spacing 2 μm), or a median plan were acquired on a Nikon 1AR connected to an inverse Nikon Ti-2000 equipped with an oil-immersion plan APO 60× objective lenses with 1.40 NA. Data were collected using Nikon Imaging Software. […] Image analysis: All image analysis was done using Image J software (Schindelin et al 2012; Schneider et al 2012). To measure the area of the organelle of interest (early endosomes-EEA1; lysosomes-Lamp1; retromer-VPS35 . . . ), segmentation was realized using automatic thresholding. The following masks were used: Mean (EEA1), Ostu (Lamp1), Intermodes (VPS35). Overlap of signal of interests were quantified with Manders colocalisation index (Plugin Jacob, (Bolte and Cordelieres 2006)). When indicated, co-localization data was normalized to the reference group for multiple comparisons.

[8] = tested on: NPC disease models; conditions: cited from earlier work
[9] = tested on: NPC1−/− neural stem cells; conditions: cited from earlier work
[10] = tested on: PSENdKO cells; test: Lysosomal Ca2+ content, Fura-2AM loaded cells challenged with GPN, PSENdKO cells; type: cell-based, mouse; set-up: lysosomal Ca2+ content: dose or concentration left out as unconfirmed
Source text: Diluent treatment alone (in most cases DMSO, water for the cyclodextrin) was used as vehicle control.
Briefly, the web-based CRISPR design tool was used to select the sequence to be targeted in mouse PSEN1 and PSEN2 (i.e. 5′-[…]-3′ and 5′-[…]-3′, respectively). Oligo pairs encoding guide sequences (obtained from Integrated DNA Technologies, IDT) were annealed and ligated into the pX330 plasmid (Addgene) according to the Zhang's laboratory protocol (https://www.addgene.org/crispr/zhang/). MEF cells were then transfected with the pX330-PSEN1 and PX330-PSEN2, using Fugene HD (Promega), in accordance with the manufacturer protocol. Selection of PSENdKO clones was achieved through serial dilution and confirmed by WB analysis. Further depletion of APP in different PSENdKO clones was achieved through electroporation of RNP complexes. […]
Cells were rinsed three times and left to equilibrate for at least 15-20 min (RT). […] Briefly, cells were segmented manually and fluorescence intensities were measured over time. Fura-2 signals were corrected to obtain ΔF/F0 (F0 being the initial signal recorded). For each cell, the area under the curve, corresponding to the aforementioned stimulation, was measured using GraphPad Prism.

[11] = tested on: cultured skin fibroblasts of NPC patients; conditions: cited from earlier work
[12] = tested on: Npc1-null cells; conditions: cited from earlier work
[13] = overnight, 10 nM, data not shown

Nc1ccc(C(=O)Nc2cccc(-c3nc(N4CCOCC4)c4oc5ncccc5c4n3)c2)cn1 [YM201636]
Lysosomal Ca2+ levels ([1]; WT cells, 2 μM, 2 h, 100 μM GPN): reduced

CCCCN1C[C@H](O)[C@@H](O)[C@H](O)[C@H]1CO [Miglustat, N-butyl-deoxynojirimycin]
neurological outcome (e.g. dysphagia, supranuclear gaze palsy) [2]: neurological improvement or stabilization | accumulation of gangliosides in the brain [3]: reduced the accumulation of gangliosides in the brain | increase of lifespan [3]: approximately 33% | neurological progression of the disease [3]: slowed the neurological progression of the disease | accumulation of gangliosides in the brain [4]: reduced accumulation of gangliosides in the brain | increase of lifespan [4]: approximately 74% | onset of neurological symptoms [4]: delayed onset of neurological symptoms

CC(C)c1cc(-c2n[nH]c(=O)n2-c2ccc3c(ccn3C)c2)c(O)cc1O [Ganetespib]
clearance of cholesterol from LE/Ly [5]: clearance of cholesterol from LE/Ly

2-Hydroxypropyl-beta-cyclodextrin [HP-beta-CD]
neurological dysfunction and lipid accumulation in neurons [6]: reduced neurological dysfunction and lipid accumulation in neurons

Cc1ccc(NC(=O)c2ccc(CN3CCN(C)CC3)cc2)cc1Nc1nccc(-c2cccnc2)n1 [Imatinib]
APP-CTFs in VPS35-positive organelles [7]: significant decrease of APP-CTFs in VPS35-positive organelles | VPS35-LAMP1 co-localization ([7]; vs DMSO): lowered VPS35-LAMP1 co-localization

CC(C)C[C@H](NC(=O)[C@H](Cc1ccccc1)C[C@@H](O)[C@H](Cc1ccccc1)NC(=O)OC(C)(C)C)C(=O)N[C@@H](Cc1ccccc1)C(N)=O [InhibitorX]
lysosomal Ca2+ content ([1]; WT cells, 1 μM, 4 days, normalized to DMSO): reduced

CC(/C=C/C(=O)NO)=C\[C@@H](C)C(=O)c1ccc(N(C)C)cc1 [trichostatin A]
cholesterol accumulation [8]: efficiently correct cholesterol accumulation

CCNC(=O)c1noc(-c2cc(C(C)C)c(O)cc2O)c1-c1ccc(CN2CCOCC2)cc1 [AUY922]
clearance of cholesterol from LE/Ly [5]: clearance of cholesterol from LE/Ly

CC1(C)CC(=O)c2c(C(F)(F)F)nn(-c3ccc(C(N)=O)c(N[C@H]4CC[C@H](O)CC4)c3)c2C1 [SNX2112]
clearance of cholesterol from LE/Ly [5]: clearance of cholesterol from LE/Ly

CO/C1=C\C(C)=C\[C@@H](C)[C@@H](O)[C@@H](C)C/C(C)=C/C=C/[C@H](OC)[C@@H]([C@@H](C)[C@@H](O)[C@H](C)[C@@]2(O)C[C@@H](O)[C@H](C)[C@@H](C(C)C)O2)OC1=O [bafilomycin1]
lysosomal Ca2+ content ([1]; full alkalinization, compared with PSENdKO cells): equally affected lysosomal Ca2+ content as observed in PSENdKO cells

CCCC(CCC)C(=O)O [Valproic acid]
benefit in NPC1−/− neural stem cells [9]: some benefit

Cc1[nH]c2ccccc2c1CCNCc1ccc(/C=C/C(=O)NO)cc1 [LBH589]
cholesterol accumulation [8]: efficiently correct cholesterol accumulation

COc1ccc(C(=O)O[C@H]2[C@H](O[C@@H]3[C@@H](OC(C)=O)[C@H](O[C@H]4C[C@H]5[C@@H]6CC=C7C[C@@H](O)CC[C@]7(C)[C@H]6CC[C@]5(C)[C@@]4(O)[C@H](C)C(=O)CCC(C)C)OC[C@@H]3O)OC[C@@H](O)[C@@H]2O)cc1 [OSW-1]
lysosomal cholesterol staining [7, 13]: did not decrease lysosomal cholesterol staining | lysosomal Ca2+ dysfunction [10, 13]: nor did it rescue lysosomal Ca2+ dysfunction

CC(C)c1cc(C(=O)N2Cc3ccc(CN4CCN(C)CC4)cc3C2)c(O)cc1O [AT13387]
clearance of cholesterol from LE/Ly [5]: clearance of cholesterol from LE/Ly

CCc1cc(C(N)=O)ccc1-n1nc(C(C)C)c2c(-n3cnc(-c4cnn(C)c4)c3)ccnc21 [TAS-116]
clearance of cholesterol from LE/Ly [5]: clearance of cholesterol from LE/Ly

O=C(CCCCCCC(=O)Nc1ccccc1)NO [Vorinostat, suberanilohydroxamic acid]
accumulation of lipids in the lysosomes [11]: reduces the accumulation of lipids in the lysosomes

2-hydroxypropyl-γ-cyclodextrin [HPγCD]
EEA1 area ([7]; 1 mM, 4 days): reduced EEA1 area | accumulation of membrane-tethered APP fragments in Lamp1-positive LE/Lys ([7]; 1 mM, 4 days): strongly reduced | colocalization of VPS35 with Lamp1 ([7]; 1 mM, 4 days): decreased colocalization of VPS35 | filipin staining in Lamp1-positive LE/Lys ([7]; 1 mM, 4 days): Reduced filipin staining | lysosomal Ca2+ content ([10]; 4 days): fully restored lysosomal Ca2+ content | intracellular free cholesterol levels and lysosome changes [12]: reduce intracellular free cholesterol levels and normalize the lysosome changes

[O-][n+]1cccc(/C(Cl)=N/OC[C@H](O)CN2CCCCC2)c1 [arimoclomol]
clearance of cholesterol from LE/Ly [5]: same effect

C=CCNC1=C2C[C@@H](C)C[C@H](OC)[C@H](O)[C@@H](C)/C=C(\C)[C@H](OC(N)=O)[C@@H](OC)/C=C\C=C(/C)C(=O)NC(=CC1=O)C2=O [17-AAG]
clearance of cholesterol from LE/Ly [5]: clearance of cholesterol from LE/Ly
